These results are taken from patent US7897788B2, “Indol-1-yl-acetic acid derivatives” (Actelion Pharmaceutical Ltd., priority 2004, dated 2011).

As a reminder, the IC50 is the midpoint of a concentration-inhibition curve.

The target of assay [1] is T1, hCRTH2 receptor (Homo sapiens, UniProt Q9Y5Y4).
T1 construct: expressed in transfected cells
T1 sequence (Q9Y5Y4 1-395): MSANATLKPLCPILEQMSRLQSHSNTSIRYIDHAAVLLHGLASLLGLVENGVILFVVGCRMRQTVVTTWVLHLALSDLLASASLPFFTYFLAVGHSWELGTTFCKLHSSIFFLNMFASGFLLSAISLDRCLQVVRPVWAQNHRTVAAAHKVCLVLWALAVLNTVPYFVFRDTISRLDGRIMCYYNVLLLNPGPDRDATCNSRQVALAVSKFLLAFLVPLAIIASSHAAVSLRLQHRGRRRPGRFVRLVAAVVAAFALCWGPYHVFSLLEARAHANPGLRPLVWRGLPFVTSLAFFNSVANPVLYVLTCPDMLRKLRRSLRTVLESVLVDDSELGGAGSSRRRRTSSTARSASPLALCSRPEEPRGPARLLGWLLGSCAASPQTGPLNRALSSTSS
As to the kind of experiment: CRTH2 membranes radioligand binding assay ({3H}-PGD2), Example B-1. The conditions noted are these: {3H}-PGD2 radioligand binding, read-out: CRTH2 binding IC50 (nM) (method B1 above). As to the method: The ability of the compounds of formula I, IC1, IC2 or IP to bind to the CRTH2 receptor may be measured by methods similar to those described in Sawyer N. et al., Br. J. Pharmacol. (2002), 137, 1163-1172 and by the method described below in Example B-1.
Preparation of the membranes and radioligand binding assays are performed according to known procedures, e.g. Sawyer N. et al. (Br. J. Pharmacol., 2002, 137, 1163-1172). A clonal HEK 293 cell line, expressing high level of recombinant hCRTH2 receptor, is selected for the preparation of membranes. Cells are detached from culture plates in 5 ml buffer A per plate (5 mM Tris, 1 mM MgCl2x6H2O, 0.1 mM PMSF, 0.1 mM phenanthroline) using a police rubber and transferred into centrifugation tubes and frozen at −80° C. After thawing, the cells are centrifuged at 500 g for 5 min and then resuspended in buffer A. Cells are then fragmented by homogenization with a Polytron homogenizer for 30 s. The membrane fragments are centrifuged at 3000 g for 40 min and resuspended in membranes in buffer B (50 mM Tris, 25 mM MgCl2, 250 mM saccharose, pH 7.4) and aliquots are stored frozen.
Binding assay is performed in a total volume of 250 μl. In each well, 75 μl buffer C (50 mM Tris, 100 mM NaCl, 1 mM EDTA, 0.1% BSA (protease free), 0.01% NaN3, pH 7.4) was mixed with 50 μl {^3H}-PGD2 (at 2.5 nM (220.000 dpm per well) from Amersham, TRK734), 100 μl CRTH2 membranes to give 80 μg per well and 25 μl of test compound in buffer C containing 1% DMSO. For unspecific binding, PGD2 is added to the reaction mixture at 1 μM final concentration. This binding assay mix is incubated at rt for 90 min and then filtered through a GF/C filter plate. The filter is washed three times with ice cold binding buffer. Then, 40 μl per well Microscint-40 (Packard) are added and the bound radioactivity is quantified by means of Topcount (Packard).

In assay [2] the target is T1, hCRTH2 receptor. Kind of assay: Intracellular calcium mobilization assay (FLIPR), Example B-2. In kind it is cell-based. The conditions noted are these: HEK-293 cells expressing hCRTH2; 10 nM prostaglandin D2 as agonist; read-out: CRTH2 FLIPR IC50 (nM) (method B2 above). As for the experimental part:
A functional assay with cells expressing the human CRTH2 receptor may be used to detect changes in the levels of intracellular calcium concentration following compound treatment. After addition of the compound the cells are challenged with PGD2. In a Fluorescent Imaging Plate Reader (FLIPR™, Molecular Devices, Sunnyvale, Calif.) fluorescence emission is recorded during both additions, emission peak values above base level after PGD2 addition were exported, normalized to low controls (no PGD2) and high controls (no active compound). The relative values of the remaining activity were used to determine IC50 values by curve fitting the data to a single site to a four-parameter logistic sigmoid dose response curve of the equation (A+((B−A)/(1+((C/x)^D)))).
The ability of the compounds to antagonize PGD2 induced change of intracellular calcium levels via CRTH2 activation may be measured by methods known of one skilled in the art or by the method described below in Example B-2.
Cells (HEK-293), stably expressing the hCRTH2 receptor under the control of the cytomegalovirus promotor from a single insertion of the expression vector pcDNA5 (Invitrogen), are grown to confluency in DMEM (low glucose, Gibco) medium supplemented with 10% fetal calf serum (both Bioconcept, Switzerland) under standard mammalian cell culture conditions (37° C. in a humidified atmosphere of 5% CO2). Cells are detached from culture dishes using a dissociation buffer (0.02% EDTA in PBS, Gibco) for 1 min, and collected by centrifugation at 200 g at rt for 5 min in assay buffer (equal parts of Hank's BSS (HBSS, Bioconcept) and DMEM (low glucose, without phenol red, Gibco)). After incubation for 45 min (37° C. and 5% CO2) in the presence of 1 μM Fluo-4 and 0.04% Pluronic F-127 (both Molecular Probes), 20 mM HEPES (Gibco) in assay buffer, the cells are washed with and resuspended in assay buffer, then seeded onto 384-well FLIPR assay plates (Greiner) at 50,000 cells in 66 μl per well), and sedimented by centrifugation.
Stock solutions of test compounds are made up at a concentration of 10 mM in DMSO, and serially diluted in assay buffer to concentrations required for inhibition dose response curves. Prostaglandin D2 (Biomol, Plymouth Meeting, Pa.) is used as an agonist.
A FLIPR384 instrument (Molecular Devices) is operated according to the manufacturer's standard instructions, adding 4 μl of test compound dissolved at 10 mM in DMSO and diluted prior to the experiment in assay buffer to obtain the desired final concentration. 10 μl of 80 nM prostaglandin D2 (Biomol, Plymouth Meeting, Pa.) in assay buffer, supplemented with 0.8% bovine serum albumin (fatty acid content<0.02%, Sigma), is then added to obtain a final concentration of 10 nM and 0.1%, respectively. Changes in fluorescence are monitored before and after the addition of test compounds at λex=488 nm and λem=540 nm. Emission peak values above base level after prostaglandin D2 addition are exported after base line subtraction. Values are normalized to high-level control (no test compound added) after subtraction of base line value (no prostaglandin D2 added). The program XLlfit 3.0 (IDBS) is used to fit the data to a single site dose response curve of the equation (A+((B−A)/(1+((C/x)^D)))) and to calculate the IC50 values.
Background: A change in cytosolic calcium serves as a functional read-out for many receptors and channels.

`N#C/C(=C\c1cn(CC(=O)O)c2ccccc12)C(=O)N(CC(=O)O)c1ccccc1` [Example 99, {3-[(E)-2-(carboxymethyl-phenyl-carbamoyl)-2-cyano-vinyl]-indol-1-yl}-acetic acid]: the IC50 at hCRTH2 receptor [1] was found to be 16 nM; at hCRTH2 receptor [2] it was 159 nM.

With `CN(C(=O)/C(C#N)=C/c1cn(CC(=O)O)c2ccccc12)c1cccc(Cl)c1` [Example 101, (3-{(E)-2-[(3-chloro-phenyl)-methyl-carbamoyl]-2-cyano-vinyl}-indol-1-yl)-acetic acid], the IC50 was 15 nM on hCRTH2 receptor [1] and 182 nM at hCRTH2 receptor [2].

On to `N#C/C(=C\c1cn(CC(=O)O)c2ccccc12)C(=O)N1c2ccccc2Sc2ccc(Cl)cc21` [Example 113, {3-[(E)-3-(2-chloro-phenothiazin-10-yl)-2-cyano-3-oxo-propenyl]-indol-1-yl}-acetic acid], for which the figures for the IC50 at hCRTH2 receptor [1] and at hCRTH2 receptor [2] were 9 nM and 66 nM, respectively.

For the compound `N#C/C(=C\c1cn(CC(=O)O)c2ccccc12)C(=O)N1Cc2ccccc2Cc2ccccc21` [Example 89, {3-[(E)-2-cyano-3-(6,11-dihydro-dibenzo[b,e]azepin-5-yl)-3-oxo-propenyl]-indol-1-yl}-acetic acid], the figures for the IC50 at hCRTH2 receptor [1] and on hCRTH2 receptor [2] were 6 nM and 114 nM, respectively.

As to `N#C/C(=C\c1cn(CC(=O)O)c2ccccc12)C(=O)N1c2ccccc2C=Cc2ccccc21` [Example 87, sodium [3-((E)-2-cyano-3-dibenzo[b,f]azepin-5-yl-3-oxo-propenyl)-indol-1-yl]-acetate], the results for the IC50 on hCRTH2 receptor [1] and at hCRTH2 receptor [2] were 12 nM and 57 nM, respectively.

Turning to `COc1ccc(N(C)C(=O)/C(C#N)=C/c2cn(CC(=O)O)c3ccccc23)cc1` [Example 45, (3-{(E)-2-cyano-2-[(4-methoxy-phenyl)-methyl-carbamoyl]-vinyl}-indol-1-yl)-acetic acid], the IC50 at hCRTH2 receptor [1] was 7 nM; on hCRTH2 receptor [2] it was 48 nM.

In the case of `Cc1ccc(NC(=O)/C(C#N)=C/c2cn(CC(=O)O)c3ccccc23)cc1Br` [Example 70, {3-[(E)-2-(3-bromo-4-methyl-phenylcarbamoyl)-2-cyano-vinyl]-indol-1-yl}-acetic acid], the IC50 was found to be 76 nM on hCRTH2 receptor [1] and 58 nM on hCRTH2 receptor [2].

On to `N#C/C(=C\c1cn(CC(=O)O)c2ccccc12)C(=O)Nc1ccccc1Oc1ccc(Cl)cc1Cl` [Example 49, (3-{(E)-2-cyano-2-[2-(2,4-dichloro-phenoxy)-phenylcarbamoyl]-vinyl}-indol-1-yl)-acetic acid], for which the half-maximal inhibitory concentration (IC50) was determined as 35 nM at hCRTH2 receptor [1] and 146 nM on hCRTH2 receptor [2].

For the compound `CC(=O)c1ccc(N(C)C(=O)/C(C#N)=C/c2cn(CC(=O)O)c3ccccc23)cc1` [Example 94, (3-{(E)-2-[(4-acetyl-phenyl)-methyl-carbamoyl]-2-cyano-vinyl}-indol-1-yl)-acetic acid], the IC50 on hCRTH2 receptor [1] came to 10 nM; at hCRTH2 receptor [2], 181 nM.

On to `COc1ccc(Cl)cc1NC(=O)/C(C#N)=C/c1cn(CC(=O)O)c2ccccc12` [Example 64, {3-[(E)-2-(5-chloro-2-methoxy-phenylcarbamoyl)-2-cyano-vinyl]-indol-1-yl}-acetic acid], for which the IC50 at hCRTH2 receptor [1] came out at 40 nM; at hCRTH2 receptor [2] it was 61 nM.

For `CN(C(=O)/C(C#N)=C/c1cn(CC(=O)O)c2ccc(F)cc12)c1ccccc1C(F)(F)F` [Example 141, (3-{(E)-2-cyano-2-[methyl-(2-trifluoromethyl-phenyl)-carbamoyl]-vinyl}-5-fluoro-indol-1-yl)-acetic acid], the results for the IC50 at hCRTH2 receptor [1] and on hCRTH2 receptor [2] were 17 nM and 47 nM, respectively.

On to `N#C/C(=C\c1cn(CC(=O)O)c2ccccc12)C(=O)N(Cc1ccccc1)c1ccccc1` [Example 12, {3-[(E)-2-(benzyl-phenyl-carbamoyl)-2-cyano-vinyl]-indol-1-yl}-acetic acid], for which the figures for the IC50 on hCRTH2 receptor [1] and at hCRTH2 receptor [2] were 29 nM and 90 nM, respectively.

Turning to `Cc1ccc2c(/C=C(\C#N)C(=O)N3Cc4ccccc4Cc4ccccc43)cn(CC(=O)O)c2c1` [Example 149, {3-[(E)-2-cyano-3-(6,11-dihydro-dibenzo[b,e]azepin-5-yl)-3-oxo-propenyl]-6-methyl-indol-1-yl}-acetic acid], the IC50 amounted to 49 nM at hCRTH2 receptor [1] and 253 nM at hCRTH2 receptor [2].

For the compound `N#C/C(=C\c1cn(CC(=O)O)c2ccccc12)C(=O)N1CCCc2ccccc21` [Example 47, {3-[(E)-2-cyano-3-(3,4-dihydro-2H-quinolin-1-yl)-3-oxo-propenyl]-indol-1-yl}-acetic acid], the IC50 on hCRTH2 receptor [1] is 9 nM; on hCRTH2 receptor [2], 54 nM.

With `N#C/C(=C\c1cn(CC(=O)O)c2ccccc12)C(=O)Nc1ccccc1Cc1ccccc1` [Example 29, {3-[(E)-2-(2-benzyl-phenylcarbamoyl)-2-cyano-vinyl]-indol-1-yl}-acetic acid], the IC50 on hCRTH2 receptor [1] turned out to be 42 nM; on hCRTH2 receptor [2], 151 nM.

`N#C/C(=C\c1cn(CC(=O)O)c2ccccc12)C(=O)Nc1cccc(C(=O)c2ccccc2)c1` [Example 54, {3-[(E)-2-(3-benzoyl-phenylcarbamoyl)-2-cyano-vinyl]-indol-1-yl}-acetic acid]: the values for the IC50 on hCRTH2 receptor [1] and on hCRTH2 receptor [2] were 18 nM and 98 nM, respectively.

`CN(C(=O)/C(C#N)=C/c1cn(CC(=O)O)c2ccccc12)c1ccccc1` [Example 46, {3-[(E)-2-cyano-2-(methyl-phenyl-carbamoyl)-vinyl]-indol-1-yl}-acetic acid]: the values for the IC50 on hCRTH2 receptor [1] and at hCRTH2 receptor [2] were 11 nM and 61 nM, respectively.
